Reference: paper PMC9046087, “Structural basis of tethered agonism of the adhesion GPCRs ADGRD1 and ADGRF1” (Nature, 2022)
Positions count from the first letter of the chain named. Ends that are not written are not given here.

Key:
ADGRF1 [1] = target: T1, ADGRF1 (Homo sapiens, UniProt Q5T601); assay: BRET assay using TRUPATH biosensors, Gs activation of ADGRF1; assay type: cell-based; conditions: Gs, ADGRF1 WT, n = 7
T1 construct: Flag (N); expressed in transfected cells; host or cells: HEK293F
T1 sequence (Q5T601 20-910): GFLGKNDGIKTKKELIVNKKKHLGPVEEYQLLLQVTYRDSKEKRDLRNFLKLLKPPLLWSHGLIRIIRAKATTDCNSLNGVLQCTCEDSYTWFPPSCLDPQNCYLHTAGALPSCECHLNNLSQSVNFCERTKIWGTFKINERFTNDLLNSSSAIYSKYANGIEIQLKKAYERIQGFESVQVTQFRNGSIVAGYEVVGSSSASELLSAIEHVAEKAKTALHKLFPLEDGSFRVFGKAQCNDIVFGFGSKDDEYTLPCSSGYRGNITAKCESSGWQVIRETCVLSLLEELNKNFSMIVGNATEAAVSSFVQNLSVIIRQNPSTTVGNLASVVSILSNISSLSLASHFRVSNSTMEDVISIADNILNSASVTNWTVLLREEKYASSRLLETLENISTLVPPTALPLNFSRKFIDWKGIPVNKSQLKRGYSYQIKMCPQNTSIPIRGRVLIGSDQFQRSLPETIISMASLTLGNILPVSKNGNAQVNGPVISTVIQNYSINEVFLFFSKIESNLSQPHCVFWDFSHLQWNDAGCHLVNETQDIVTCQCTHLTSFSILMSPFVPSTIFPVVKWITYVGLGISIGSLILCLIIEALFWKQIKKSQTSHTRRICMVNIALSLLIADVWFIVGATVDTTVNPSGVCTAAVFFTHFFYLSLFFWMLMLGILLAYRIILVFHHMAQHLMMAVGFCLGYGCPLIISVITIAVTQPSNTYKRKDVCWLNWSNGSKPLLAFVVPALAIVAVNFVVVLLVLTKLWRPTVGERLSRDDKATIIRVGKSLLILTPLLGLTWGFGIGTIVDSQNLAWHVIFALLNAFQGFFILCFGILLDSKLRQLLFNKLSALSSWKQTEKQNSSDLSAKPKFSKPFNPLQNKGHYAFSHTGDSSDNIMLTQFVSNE
Procedure: (§1) To study the synthetic stalk peptide-induced G protein activation of ADGRD1 and ADGRF1, a BRET assay using TRUPATH biosensors was conducted to measure the proximal interaction between RLuc8 fused to the Gα subunit and GFP2 fused to the Gγ subunit. The TRUPATH suite of biosensors was obtained from Addgene (Addgene kit no. 1000000163) as a gift from B. Roth, including GαsS-RLuc8, Gαi1-RLuc8, Gβ3 and Gγ9-GFP2 as previously described.
(§2) The wild-type or mutant ADGRD1 and ADGRF1 were transiently co-transfected with plasmids encoding Gα-RLuc8 (GαsS-RLuc8 for Gs activation assay; Gαi1-RLuc8 for Gi activation assay), Gβ3 and Gγ9-GFP2 at a ratio of 2:1:1:1 (receptor plasmid, 800 ng; G protein subunit plasmids, 400 ng for each) in 2 ml HEK293F cells at a density of 1.2 × 10^6 cells per ml. Cell cultivation and receptor surface expression measurement were performed as described above. The cells were plated into 96-well white plates (40,000 cells per well) in 60 μl of assay buffer and incubated at 37 °C for 30 min. Then 10 μl of freshly prepared 50 μM coelenterazine 400a (Nanolight Technologies) was added. […] The cells were stimulated with 30 μl of synthetic stalk peptide at different concentrations and the BRET signals were monitored continuously five times. The last measurements were used in data analysis. The BRET ratios were calculated as the ratio of the GFP2 emission to RLuc8 emission.

ADGRF1 [2] = target: T2, ADGRF1 (Homo sapiens, UniProt Q5T601, K791A); assay: as above; assay type: cell-based; conditions: Gs, ADGRF1 K791^6.40bA, n = 3
T2 construct: Flag (N); expressed in transfected cells; host or cells: HEK293F
T2 sequence (Q5T601 20-910 K791A): T1 sequence (Q5T601 20-910) with K772A
Procedure: as §1, §2

[3] = read-out: pEC50 (mean ± s.e.m.) (converted)

TSFSILMSPFVP [pF1]
Emax (mean ± s.e.m.) (ADGRF1 [1]): 100 ± 9 % of WT
EC50 (ADGRF1 [1]; [3]): 35.5 nM
Emax (mean ± s.e.m.) (ADGRF1 [2]): 79 ± 13 % of WT
EC50 (ADGRF1 [2]; [3]): 912 nM
